Measurements from PMC12291837, “Elephant Cathelicidin-Derived Peptides Inhibit Herpes Simplex Virus 1 Infection” (Antibiotics, 2025).
Where no end group is shown, it is not given here.

What was measured:
HSV-1 [1] = test: microbe, parasite or virus in culture; format: cell-based, Herpes simplex virus type 1 (HSV-1 17 + strain); settings: U251 cells
Procedure: (§1) Human glioma cells (U251) were maintained in Dulbecco’s Modified Eagle Medium (DMEM; Gibco, Waltham, MA, USA) supplemented with 10% heat-inactivated fetal bovine serum (FBS; ExCell), 100 U/mL penicillin, and 100 µg/mL streptomycin. Serum inactivation was performed at 56 °C for 30 min prior to medium supplementation. Cell cultures were incubated at 37 °C under 5% CO2 atmosphere. The HSV-1 17 + strain utilized in this study was maintained under laboratory preservation conditions.
U251 cells were seeded into 12-well plates at a density of 2 × 10^5 cells per well and incubated for 12 h. […] Following treatment, the total DNA was extracted by using DNA isolation mini kit (Vazyme, Nanjing, China) under the manufacturer’s instructions.
Total RNA was extracted using TRIzol reagent (Invitrogen, Carlsbad, CA, USA). One microgram of RNA was reverse-transcribed into cDNA by using a reverse transcription kit (Vazyme, China). Diluted gDNA and cDNAs were subjected to qPCR analysis using ChamQ Universal SYBR qPCR Master Mix (Vazyme, China) with the following parameters: 95 °C for 30 s, followed by 40 cycles of 95 °C for 5 s and 60 °C for 30 s, followed by melting curve analysis. Primers for qPCR were synthesized by Sangon Biotech (Shanghai, China) (Appendix A Table A2). The qPCR data were analyzed using the 2^−ΔΔCt method.

HSV-1 [2] = test: HSV-1 footpad inoculation mouse model, viral load (UL30 gene copies) and lung H&E histology; format: in vivo; settings: C57BL/6J mice, 10 mg/kg i.p. once daily for 5 days
Procedure: Female C57BL/6J mice, aged 6–8 weeks, were purchased from Beijing Vital River Laboratory Animal Technology Co., Ltd. (Beijing, China). […] Except for the vehicle control group, mice in the other groups were subplantarly infected with HSV-1 at a dose of 1.0 × 10^6 PFU per mouse. […] The vehicle control and virus control groups received an equivalent volume of phosphate-buffered saline (PBS). Mice were euthanized 24 h after the last administration, and tissue samples were collected. Body weight was measured daily at a fixed time during the treatment period to generate weight change curves.
Tissues were homogenized using a tissue grinder and total DNA was extracted from homogenate supernatants using a DNA isolation mini kit (Vazyme, China) under the manufacturer’s instructions. To establish a standard curve for real-time quantitative PCR (qPCR), the UL30 gene was used as the target sequence, and a recombinant plasmid containing this gene was constructed. In brief, the UL30 gene was cloned into the pMD19-T vector and transformed into DH5α. After verification by colony PCR and sequencing, high-purity plasmid DNA was extracted, and its concentration was measured using Nanodrop and converted into copy numbers (copies/μL). Then a 10-fold serial dilution (10^1–10^8 copies/μL) was prepared to generate the standard curve. Using the extracted DNA as a template, UL30 gene copy numbers were quantified in mouse tissues through qPCR with UL30 specific primers.
Tissues were fixed in 4% paraformaldehyde for 72 h and subsequently processed by Servicebio Biotechnology Co., Ltd. (Wuhan, China) for paraffin embedding, pathological sectioning, and hematoxylin eosin (H&E) staining.

U251 cells = test: Cytotoxicity assay (CCK-8) on U251 cells; format: cell-based, Human; settings: 24 h
Procedure: as §1
Cell viability was evaluated by using cell counting kit-8 reagent (CCK-8, Biosharp, Shanghai, China) according to the manufacturer’s protocol. Briefly, U251 cells were seeded in 96-well culture plates and cultured for 12 h at 37 °C. The cells were then treated with or without peptides for 24 h. After that, 10 μL of the CCK-8 reaction mixture were added to each well and incubated at 37 °C for 0.5–4 h. The absorbance of each well was measured at 450 nm with a SpectraMax M2e Multi-Mode Microplate Reader (Molecular Devices, USA). The formula for calculating cell viability is as follows:
Cell viability (%) = (average OD of treated sample-average OD of vehicle sample)/(average OD of cell sample-average OD of vehicle sample) × 100%

Nc1nc2c(ncn2COCCO)c(=O)[nH]1 [ACV, Acyclovir]
IC50 (HSV-1 [1]; Human alphaherpesvirus 1, U-251, HSV-1 MOI = 0.1, co-treatment 24 h, qPCR of UL30 DNA, mean ± SEM of three independent experiments, read-out: IC50 against HSV-1): 17.6 ± 5.75 µM
Lung tissue viral load (HSV-1 UL30 gene copies) (HSV-1 [2]; HSV-1 footpad 1.0 × 10^6 PFU, day 5 post-infection, n = 5, HSV-1 control 7.02 ± 0.57): 6.01 ± 0.13 log10 copies/μL
Heart tissue viral load versus HSV-1 control group (HSV-1 [2]; HSV-1 footpad, n = 5, HSV-1 control 7.78 ± 0.41 log10 copies/μL): neither the EM-1 nor the ACV treatment group showed a significant difference
Lung histopathology (H&E staining) (HSV-1 [2]; HSV-1 footpad, compared with HSV-1 control group): preserved normal alveolar architecture

GRRVKGFFRDVLRRVPYLPGPR-NH2 [EM-2, modified peptide derived from Elephas maximus cathelicidin EM]
Cytotoxic effect on U251 cells (cell viability) (U251 cells; U251 cells, CCK-8, 5 μM and 10 μM, compared to peptide EM, EM-3 and EM-4): significantly lower toxicity
Relative DNA levels of HSV-1 UL30 (HSV-1 [1]; HSV-1 MOI = 0.1, 24 h, 10 μM peptide, versus virus control group, p < 0.001): marked suppression of HSV-1 activity

RRIRGLRKFFRKSKEKLKKV-NH2 [EM-1]
CC50 (median cytotoxic concentration) (U251 cells): 214.55 ± 36.25 µM
